Test results: the supplement of paper PMC10307832

Assays:
Assay in all cases: relative viability (nuclei count vs DMSO), 5 days (fraction); higher = more cells survive
[1] = compound: CS(=O)(=O)c1ccc(-c2cnc(N)c(C(=O)Nc3ccccc3)n2)cc1 [VE-821] + Cc1cc(Nc2cc(N3CCN(C)CC3)nc(Sc3ccc(NC(=O)C4CC4)cc3)n2)n[nH]1 [Tozasertib] (partner 0.1 µM)
In short: (§1)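 A single step with final 0.05% Triton X-100, 1% formaldehyde and 1 ug/ml Hoechst fixed the cells and stained nuclei 5 days after treatment. Lung cancer cell lines in 1536-well plates had been treated by pin tool the day after seeding with one drug alone or a fixed anchor-drug dose plus five library-drug doses (not always all listed) in √10 steps, and nuclei were counted on 4× images. Relative viability is the ratio of nuclei in treated wells to nuclei in vehicle wells, taken as the median of duplicate plates.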

[2] = compound: CS(=O)(=O)c1ccc(-c2cnc(N)c(C(=O)Nc3ccccc3)n2)cc1 [VE-821] + O=C(CCCCCCC(=O)Nc1ccccc1)NO [Vorinostat] (partner 1 µM)
In short: as §1

[3] = compound: CS(=O)(=O)c1ccc(C(=O)Nc2ccc(Cl)c(-c3ccccn3)c2)c(Cl)c1 [Vismodegib] + C[C@]1(O)C[C@@H](c2nc(-c3ccc4ccc(-c5ccccc5)nc4c3)c3c(N)nccn32)C1 [Linsitinib] (partner 1 µM)
In short: as §1

[4] = compound: N#CC[C@H](C1CCCC1)n1cc(-c2ncnc3[nH]ccc23)cn1 [Ruxolitinib] + N=C(N)NC(=N)NCCc1ccccc1 [Phenformin] (partner 250 µM)
In short: as §1

| Cell Line | relative viability ([1]; first compound 0.08 µM) | relative viability ([1]; first compound 0.253 µM) | relative viability ([1]; first compound 0.8 µM) | relative viability ([1]; first compound 2.53 µM) | relative viability ([1]; first compound 8 µM) | relative viability ([2]; first compound 0.08 µM) | relative viability ([2]; first compound 0.253 µM) | relative viability ([2]; first compound 0.8 µM) | relative viability ([2]; first compound 8 µM) | relative viability ([3]; first compound 0.08 µM) | relative viability ([3]; first compound 0.253 µM) | relative viability ([3]; first compound 0.8 µM) | relative viability ([3]; first compound 2.53 µM) | relative viability ([3]; first compound 8 µM) | relative viability ([4]; first compound 0.08 µM) | relative viability ([4]; first compound 0.253 µM) | relative viability ([4]; first compound 0.8 µM) | relative viability ([4]; first compound 2.53 µM) | relative viability ([4]; first compound 8 µM) | relative viability ([2]; first compound 2.53 µM) |
| --- | --- | --- | --- | --- | --- | --- | --- | --- | --- | --- | --- | --- | --- | --- | --- | --- | --- | --- | --- | --- |
| NCI-H2085 | 0.875 | 0.759 | 0.494 | 0.459 | 0.368 | 0.935 | 0.754 | 0.609 | 0.511 | 0.843 | 0.874 | 0.957 | 0.86 | 0.52 | 0.758 | 0.774 | 0.831 | 0.627 | 0.642 | – |
| NCI-H2087 | 0.241 | 0.204 | 0.248 | 0.212 | 0.198 | 0.667 | 0.666 | 0.838 | 0.675 | 1 | 0.916 | 0.97 | 0.934 | 0.896 | 0.531 | 0.388 | 0.523 | 0.409 | 0.382 | 0.79 |
| NCI-H2126 | 0.911 | 0.911 | 0.671 | 0.703 | 0.518 | 0.722 | 0.78 | 0.749 | 0.497 | 0.667 | 0.711 | 0.638 | 0.762 | 0.677 | 0.518 | 0.474 | 0.568 | 0.528 | 0.522 | 0.727 |
| NCI-H2228 | 0.312 | 0.2 | 0.212 | 0.256 | 0.156 | 0.758 | 0.535 | 0.294 | 0.347 | 0.972 | 0.855 | 0.835 | 0.467 | 0.763 | 0.323 | 0.299 | 0.311 | 0.264 | 0.273 | 0.59 |
| NCI-H2347 | 0.506 | 0.6 | 0.272 | 0.498 | 0.506 | 0.531 | 0.555 | 0.465 | 0.558 | 0.902 | 0.997 | 0.857 | 0.962 | 1.04 | 0.385 | 0.406 | 0.453 | 0.533 | 0.505 | 0.818 |
| NCI-H2405 | 0.824 | 0.714 | 0.713 | 0.726 | 0.742 | 1.09 | 0.977 | 0.992 | 0.859 | – | 0.859 | 0.806 | 0.776 | 1.07 | – | 0.36 | 0.404 | 0.308 | 0.312 | 0.984 |
| NCI-H3122 | 0.389 | 0.383 | 0.369 | 0.418 | 0.306 | 1.11 | 1.01 | 0.978 | 0.908 | 1.03 | 1.01 | 1.01 | 0.924 | 0.965 | – | 0.429 | 0.378 | 0.327 | 0.318 | 1.13 |
| PC-3 [JPC-3] | 0.956 | 0.819 | 0.881 | 0.805 | 0.787 | 0.815 | 0.734 | 0.858 | 0.664 | 0.934 | 0.941 | 1.04 | 0.988 | 0.933 | 0.428 | 0.477 | 0.477 | 0.443 | 0.481 | 0.883 |
| PC-14 | 0.592 | 0.585 | 0.483 | 0.531 | 0.54 | 0.95 | 0.68 | 0.613 | 0.255 | 0.897 | 0.911 | 0.982 | 0.899 | 0.998 | – | 0.436 | 0.518 | 0.566 | 0.604 | 0.639 |
| RERF-LC-KJ | 0.539 | 0.478 | 0.483 | 0.349 | 0.274 | 0.765 | 0.731 | 0.609 | 0.623 | 0.846 | 0.922 | 0.796 | 0.823 | 0.839 | 0.349 | 0.418 | 0.426 | 0.42 | 0.332 | 0.761 |
| SK-LU-1 | 0.383 | 0.286 | 0.274 | 0.208 | 0.193 | 0.918 | 0.687 | 0.783 | 0.305 | 1.35 | 1.06 | 1.23 | 0.693 | 1.13 | 0.551 | 0.529 | 0.637 | 0.433 | 0.422 | 0.496 |
| SK-MES-1 | 0.968 | 0.818 | 0.828 | 0.561 | 0.325 | 1.18 | 1.02 | 0.857 | 0.358 | 1.04 | 1.07 | 1.08 | 0.973 | 1.07 | 0.708 | 0.641 | 0.663 | 0.593 | 0.495 | 1.08 |
| SW 1573 | 0.164 | 0.174 | 0.181 | 0.216 | 0.197 | 0.745 | 0.708 | 0.83 | 0.532 | 0.823 | 0.728 | 0.789 | 0.64 | 0.821 | 0.419 | 0.324 | 0.417 | 0.308 | 0.369 | 0.954 |
